Consider 5 molecules from ChEMBL document CHEMBL2073956, “ATP-dependent transport of bile salts by rat multidrug resistance-associated protein 3 (Mrp3)” (J Biol Chem, 2000).

Structures can show the parent of a compound that is named as a salt.

What is called Km is the substrate concentration at which the rate is half of its maximum.

Holding throughout (assay type): functional, cell membranes, Membrane vesicle
Data set [1] has as its target T1, Mrp3 (ATP-binding cassette sub-family C member 3) (Rattus norvegicus, UniProt O88563). The data set can be described thus: (§1) TP_TRANSPORTER: uptake in membrane vesicles isolated from Mrp3-expressing LLC-PK1 cells. To be noted: pig, membrane vesicles from Mrp3-expressing LLC-PK1 cells.
The target of data set [2] is T1, Mrp3 (ATP-binding cassette sub-family C member 3). Put plainly: TP_TRANSPORTER: inhibition of Taurocholate uptake (Taurochorate: 1.2 uM, TLCAS: 20 uM) in membrane vesicles isolated from Mrp3-expressing LLC-PK1 cells. The conditions noted are these: pig, probe taurocholate, read-out: Activity. Further details: scale not given: the % may be the effect or the level left.

The target of data set [3] is T2, ATP-binding cassette sub-family C member 3 (MRP3) (Rattus norvegicus, UniProt O88563). The data set can be described thus: TP_TRANSPORTER: inhibition of E217betaG uptake (E217betaG: 0.055 uM, TLC-S: 20 uM) in membrane vesicles from LLC-PK1 cells. The arrangement: scale not given: the % may be the effect or the level left. The conditions noted are these: pig, probe E217betaG, read-out: Activity.

Data set [4] concerns the target T2, ATP-binding cassette sub-family C member 3 (MRP3). The data set can be described thus: TP_TRANSPORTER: inhibition of Taurocholate uptake (Taurochorate: 1.2 uM, E217betaG: 75 uM) in membrane vesicles from LLC-PK1 cells. The arrangement: scale not given: the % may be the effect or the level left. The conditions noted are these: pig, probe taurocholate, read-out: Activity.

Data set [5] deals with T1, Mrp3 (ATP-binding cassette sub-family C member 3). Put plainly: TP_TRANSPORTER: inhibition of Taurocholate uptake (Taurochorate: 1.2 uM, E217betaG: 200 uM) in membrane vesicles isolated from Mrp3-expressing LLC-PK1 cells. The arrangement: scale not given: the % may be the effect or the level left. To be noted: pig, probe taurocholate, read-out: Activity.
The target of data set [6] is T3, ATP-binding cassette sub-family C member 3 (Rattus norvegicus, UniProt O88563). The description is as §1. The conditions noted are these: pig, llc-pk1.
The target in data set [7] is T3, ATP-binding cassette sub-family C member 3. Put plainly: TP_TRANSPORTER: inhibition of Taurocholate uptake (Taurochorate: 1.2 uM, GC: 50 uM) in membrane vesicles isolated from Mrp3-expressing LLC-PK1 cells. Further details: scale not given: the % may be the effect or the level left. The conditions noted are these: pig, llc-pk1, 50 µM.
Data set [8] concerns the target T2, ATP-binding cassette sub-family C member 3 (MRP3). The data set can be described thus: TP_TRANSPORTER: inhibition of E217betaG uptake (E217betaG: 0.055 uM, GC: 200 uM) in membrane vesicles from LLC-PK1 cells. The arrangement: scale not given: the % may be the effect or the level left. To be noted: pig, probe E217betaG, read-out: Activity.
Data set [9] addresses T3, ATP-binding cassette sub-family C member 3. The data set can be described thus: (§2) TP_TRANSPORTER: uptake in membrane vesicles from LLC-PK1 cells. To be noted: pig.
In data set [10] the target is T1, Mrp3 (ATP-binding cassette sub-family C member 3). Put plainly: TP_TRANSPORTER: inhibition of E217betaG uptake (E217betaG: 0.055 uM, GC: 200 uM) in membrane vesicles isolated from Mrp3-expressing LLC-PK1 cells. The arrangement: scale not given: the % may be the effect or the level left. The conditions noted are these: pig, probe E217betaG, read-out: Activity.
Data set [11] concerns the target T2, ATP-binding cassette sub-family C member 3 (MRP3). Put plainly: TP_TRANSPORTER: inhibition of Taurocholate uptake (Taurochorate: 1.2 uM, CA: 500 uM) in membrane vesicles from LLC-PK1 cells. Further details: scale not given: the % may be the effect or the level left. To be noted: pig, probe taurocholate, read-out: Activity.
The target is the same in data set [12]. Put plainly: TP_TRANSPORTER: inhibition of Taurocholate uptake (Taurochorate: 1.2 uM, TCDC-S: 50 uM) in membrane vesicles from LLC-PK1 cells. Further details: scale not given: the % may be the effect or the level left. To be noted: pig, probe taurocholate, read-out: Activity.
Data set [13] has as its target T3, ATP-binding cassette sub-family C member 3. Put plainly: TP_TRANSPORTER: inhibition of E217betaG uptake (E217betaG: 0.055 uM, TCDC-S: 50 uM) in membrane vesicles isolated from Mrp3-expressing LLC-PK1 cells. Further details: scale not given: the % may be the effect or the level left. The conditions noted are these: pig, llc-pk1, 50 µM.
Data set [14] has as its target T1, Mrp3 (ATP-binding cassette sub-family C member 3). The data set can be described thus: TP_TRANSPORTER: inhibition of Taurocholate uptake (TCDC-S: 50 uM) in membrane vesicles isolated from Mrp3-expressing LLC-PK1 cells. Further details: scale not given: the % may be the effect or the level left. The conditions noted are these: pig, probe taurocholate, read-out: Activity.

Data set [15] addresses T2, ATP-binding cassette sub-family C member 3 (MRP3). The data set can be described thus: TP_TRANSPORTER: inhibition of E217betaG uptake (E217betaG: 0.055 uM, TCDC-S: 50 uM) in membrane vesicles from LLC-PK1 cells. The arrangement: scale not given: the % may be the effect or the level left. To be noted: pig, probe E217betaG, read-out: Activity.
Substrate in data set [16]: [H][C@]12CC[C@]3([H])[C@]([H])(CC[C@]4(C)C([C@H](C)CCC(=O)NCCS(=O)(=O)O)CC[C@@]34[H])[C@@]1(C)CC[C@@H](OS(=O)(=O)O)C2
The description is as §2.

For the molecule `C[C@H](CCC(=O)NCCS(=O)(=O)O)C1CC[C@H]2[C@@H]3CC[C@@H]4C[C@H](OS(=O)(=O)O)CC[C@]4(C)[C@H]3CC[C@]12C` (stereo partly drawn), the Michaelis-Menten constant (Km) in [1] was 3.06 µM. In addition, the results for the activity at 20 µM in data set [2] and in [3] were 12.2% and 15.5%, respectively.
Turning to `C[C@]12CC[C@@H]3c4ccc(O)cc4CC[C@H]3[C@@H]1CC[C@@H]2O[C@@H]1O[C@H](C(=O)O)[C@@H](O)[C@H](O)[C@H]1O` [ESTRADIOL 17B GLUCURONIDE], in [4], the activity at 75 µM stood at 78.4%. The activity at 200 µM in [5] was determined as 78.4%.
`C[C@H](CCC(=O)NCC(=O)O)[C@H]1CC[C@H]2[C@@H]3[C@H](O)C[C@@H]4C[C@H](O)CC[C@]4(C)[C@H]3C[C@H](O)[C@]12C` [GLYCOCHOLIC ACID]: the results for the Activity entry in data set [6], in [7] and in [9] were “substrate [+]”, 16% and “substrate [+]”, respectively. In addition, the activity at 200 µM in data set [8] and in data set [10] was 13.9% throughout. The activity at 500 µM in [11] stood at 0%.
As for `C[C@H](CCC(=O)NCCS(=O)(=O)O)C1CC[C@H]2[C@@H]3[C@H](O)C[C@@H]4C[C@H](OS(=O)(=O)O)CC[C@]4(C)[C@H]3CC[C@]12C` (stereo partly drawn) [TAUROCHENODEOXYCHOLATE SULFATE], the results for the Activity entry in data set [6], in data set [13] and in [9] were “substrate [+]”, 26.2% and “substrate [+]”, respectively. Moreover, the activity at 50 µM amounted to 27.8% in data set [12], 27.8% in data set [14] and 26.2% in [15].

B1: ATP-binding cassette sub-family C member 3 (Rattus norvegicus) (protein)
chain: MDRLCGSGELGSKFWDSNLTVYTNTPDLTPCFQNSLLAWVPCIYLWAALPCYLFYLRHHRLGYIVLSCLSRLKTALGVLLWCISWVDLFYSFHGLVHGSSPAPVFFITPLLVGITMLLATLLIQYERLRGVRSSGVLIIFWLLCVICAIIPFRSKILLALAEGKILDPFRFTTFYIYFALVLCAFILSCFQEKPPLFSPENLDTNPCPEASAGFFSRLSFWWFTKLAILGYRRPLEDSDLWSLSEEDCSHKVVQRLLEAWQKQQTQASGPQTAALEPKIAGEDEVLLKARPKTKKPSFLRALVRTFTSSLLMGACFKLIQDLSPSSTHSCSASSSGLFRPHGPYWWGFLLAGLMFVSSTMQTLILHQHYHCIFVMALRIRTAIIGVIYRKALTITNSVKREYTVGEMVNLMSVDAQRFMDVSPFINLLWSAPLQVILAIYFLWQILGPSALAGVAVIVLLIPLNGAVSMKMKTYQVQQMKFKDSRIKLMSEILNGIKVLKLYAWEPTFLEQVEGIRQGELQLLRKGAYLQAISTFIWVCTPFMVTLITLGVYVCVDKNNVLDAEKAFVSLSLFNILKIPLNLLPQLISGMTQTSVSLKRIQDFLNQDELDPQCVERKTISPGRAITIHNGTFSWSKDLPPTLHSINIQIPKGALVAVVGPVGCGKSSLVSALLGEMEKLEGAVSVKGSVAYVPQQAWIQNCTLQENVLFGQPMNPKRYQQALETCALLADLDVLPGGDQTEIGEKGINLSGGQRQRVSLARAVYSDANIFLLDDPLSAVDSHVAKHIFDQVIGPEGVLAGKTRVLVTHGISFLPQTDFIIVLADGQITEMGHYSELLQHDGSFANFLRNYAPDENQEANEGVLQHANEEVLLLEDTLSTHTDLTDTEPAIYEVRKQFMREMSSLSSEGEGQNRPVLKRYTSSLEKEVPATQTKETGALIKEEIAETGNVKLSVYWDYAKSVGLCTTLFICLLYAGQNAVAIGANVWLSAWTNDVEEHGQQNNTSVRLGVYATLGILQGLLVMLSAFTMVVGAIQAARLLHTALLHNQIRAPQSFFDTTPSGRILNRFSKDIYVIHEVLAPTILMLFNSFYTSISTIVVIVASTPLFCVVVLPLAVFYGFVQRFYVATSRQLKRLESVSRSPIFSHFSETVTGTSVIRAYGRVQDFKVLSDAKVDSNQKTTYPYIASNRWLGVHVEFVGNCVVLFSALFAVIGRNSLNPGLVGLSVSYALQVTLSLNWMIRTLSDLESNIIAVERVKEYSKTETEAPWVLESNRAPEGWPRSGVVEFRNYSVRYRPGLELVLKNLTLHVQGGEKVGIVGRTGAGKSSMTLCLFRILEAAEGEIFIDGLNVAHIGLHDLRSQLTIIPQDPILFSGTLRMNLDPFGRYSDEDIWRTLELSHLSAFVSSQPTGLDFQCSEGGDNLSVGQRQLVCLARALLRKSRVLVLDEATAAIDLETDDLIQGTIRTQFEDCTVLTIAHRLNTIMDYNRVLVLDKGVVAEFDSPVNLIAAGGIFYGMAKDAGLA
For the molecule B1, the Michaelis-Menten constant (Km) in [16] was 3.06 µM.
